Measured values published in ChEMBL document CHEMBL3621166, “Synthesis, Structure-Activity Relationship, and Mechanistic Investigation of Lithocholic Acid Amphiphiles for Colon Cancer Therapy” (Medchemcomm, 2015).

Tests used:
[1] = Retention time of the compound by HPLC method; assay type: physicochemical
[2] = system: HCT-116; assay: Cytotoxicity against human HCT116 cells assessed as cell viability after 48 hrs by MTT assay; assay type: functional, cell-based; details: HCT-116, 48 h
[3] = Cytotoxicity against human DLD1 cells assessed as cell viability after 48 hrs by MTT assay; assay type: functional, cell-based; details: DLD-1, 48 h
[4] = Cytotoxicity against human HCT8 cells assessed as cell viability after 48 hrs by MTT assay; assay type: functional, cell-based; details: HCT-8, 48 h

Retention_time [1]	Structure (SMILES)	IC50 [2]	IC50 [3]	IC50 [4]
7.94 min	COC(=O)CC[C@@H](C)[C@H]1CC[C@H]2[C@@H]3CC[C@@H]4C[C@H](OC(=O)C[N+](C)(C)C)CC[C@]4(C)[C@H]3CC[C@]12C.[Cl-]	38.1 µM	53 µM	37 µM
8.23 min	COC(=O)CC[C@@H](C)[C@H]1CC[C@H]2[C@@H]3CC[C@@H]4C[C@H](OC(=O)C[N+]5(C)CCCC5)CC[C@]4(C)[C@H]3CC[C@]12C.[Cl-]	17.8 µM	17 µM	36.4 µM
7.98 min	COC(=O)CC[C@@H](C)[C@H]1CC[C@H]2[C@@H]3CC[C@@H]4C[C@H](OC(=O)C[N+]56CCN(CC5)CC6)CC[C@]4(C)[C@H]3CC[C@]12C.[Cl-]	60.7 µM	46.4 µM	76.4 µM
	COC(=O)CC[C@@H](C)[C@H]1CC[C@H]2[C@@H]3CC[C@@H]4C[C@H](OC(=O)CN5CCNCC5)CC[C@]4(C)[C@H]3CC[C@]12C	102 µM	118 µM	115 µM
	COC(=O)CC[C@@H](C)[C@H]1CC[C@H]2[C@@H]3CC[C@@H]4C[C@H](OC(=O)CN)CC[C@]4(C)[C@H]3CC[C@]12C	36.7 µM	29.4 µM	30.7 µM
7.9 min	COC(=O)CC[C@@H](C)[C@H]1CC[C@H]2[C@@H]3CC[C@@H]4C[C@H](OC(=O)C[n+]5ccc(N(C)C)cc5)CC[C@]4(C)[C@H]3CC[C@]12C.[Cl-]	13.2 µM	17 µM	59.1 µM
